Calls of active or inactive are those of the source. No cut-off for these calls is given here.
Tested on: Wolbachia
Test: Non-competitive inhibition of recombinant Wolbachia endobacteria ALADH using 5-ALA as substrate in presence of Mg2+
Settings: not given

SMILES	inhibition
O=C(O)c1c2c(nc3ccccc13)CCN(C(=O)c1cccc(C(F)(F)F)c1)C2	Active

Tested on: Wolbachia
Test: Non-competitive inhibition of recombinant Wolbachia endobacteria ALADH using 5-ALA as substrate
Settings: not given

SMILES	inhibition
O=C(O)c1c2c(nc3ccccc13)CCN(C(=O)c1cccc(C(F)(F)F)c1)C2	Active

Tested on: Wolbachia
Test: Binding affinity to recombinant Wolbachia endobacteria assessed as change in melting temperature at 100 uM by thermal shift assay
Settings: not given

SMILES	ΔTm
O=C(O)c1c2c(nc3ccccc13)CCN(C(=O)c1cccc(C(F)(F)F)c1)C2	5.5 °C

Tested on: Wolbachia
Test: Binding affinity to recombinant Wolbachia endobacteria assessed as change in melting temperature at 25 uM by thermal shift assay
Settings: not given

SMILES	ΔTm
O=C(O)c1c2c(nc3ccccc13)CCN(C(=O)c1cccc(C(F)(F)F)c1)C2	3 °C

Tested on: Wolbachia
Test: Binding affinity to recombinant Wolbachia endobacteria assessed as change in melting temperature at 12.5 uM by thermal shift assay
Settings: not given

SMILES	ΔTm
O=C(O)c1c2c(nc3ccccc13)CCN(C(=O)c1cccc(C(F)(F)F)c1)C2	2.8 °C

Tested on: Wolbachia
Test: Binding affinity to recombinant Wolbachia endobacteria assessed as change in melting temperature at 6.25 uM by thermal shift assay
Settings: not given

SMILES	ΔTm
O=C(O)c1c2c(nc3ccccc13)CCN(C(=O)c1cccc(C(F)(F)F)c1)C2	1.9 °C

Tested on: Wolbachia
Test: Binding affinity to recombinant Wolbachia endobacteria assessed as change in melting temperature at 1.6 uM by thermal shift assay
Settings: not given

SMILES	ΔTm
O=C(O)c1c2c(nc3ccccc13)CCN(C(=O)c1cccc(C(F)(F)F)c1)C2	0.7 °C

Tested on: Wolbachia
Test: Binding affinity to recombinant Wolbachia endobacteria assessed as change in melting temperature at 3.1 uM by thermal shift assay
Settings: not given

SMILES	ΔTm
O=C(O)c1c2c(nc3ccccc13)CCN(C(=O)c1cccc(C(F)(F)F)c1)C2	1.2 °C

Tested on: Wolbachia
Test: Inhibition of recombinant Wolbachia endobacteria ALADH using 5-ALA as substrate after 20 mins relative to control
Settings: not given

SMILES	inhibition
O=C(O)c1c2c(nc3ccccc13)CCN(C(=O)c1cccc(C(F)(F)F)c1)C2	> 30%
O=C(O)c1cc(-c2ccc(Cl)cc2)cs1	> 30%
O=C(O)c1cc(-c2ccc(Br)cc2)cs1	> 30%

Molecular target: T1, Delta-aminolevulinic acid dehydratase (Homo sapiens) (UniProt P13716)
T1 sequence (whole entry): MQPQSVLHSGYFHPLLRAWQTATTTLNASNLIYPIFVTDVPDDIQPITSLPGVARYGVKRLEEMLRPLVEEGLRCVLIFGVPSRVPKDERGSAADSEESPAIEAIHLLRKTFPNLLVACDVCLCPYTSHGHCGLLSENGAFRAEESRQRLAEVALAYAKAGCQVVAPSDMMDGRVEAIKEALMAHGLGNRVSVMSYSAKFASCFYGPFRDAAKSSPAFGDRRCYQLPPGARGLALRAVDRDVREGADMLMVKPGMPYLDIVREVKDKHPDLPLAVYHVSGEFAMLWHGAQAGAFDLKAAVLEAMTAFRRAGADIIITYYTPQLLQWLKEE
Test: (§1) Inhibition of human ALADH after 20 mins
Settings: not given

SMILES	inhibition
O=C(O)c1ccc2c(c1)n(CC1CCNC1)c(=O)n2Cc1ccc(F)cc1 (stereo not given)	inactive
O=C(N[C@@H](Cc1ccccc1)C(=O)O)c1cccs1	inactive
Cn1c(CCNC(=O)c2cccs2)nc2cc([N+](=O)[O-])ccc21	inactive
O=C(O)c1ccc2c(c1)n(CCN1CCCC1)c(=O)n2Cc1ccc(F)cc1	> 25%
CCn1c(CSc2nnc(-c3cccs3)n2Cc2ccccc2)nc2cc(C(=O)O)ccc21	inactive
CC(NC(=O)Cc1ccccc1C(=O)O)C1Nc2ccccc2N1 (stereo not given)	inactive
O=C(O)CCNC(=O)C(Cc1ccccc1)NC(=O)c1cccs1 (stereo not given)	inactive
O=C(O)c1ccc2c(c1)n(Cc1ncccn1)c(=O)n2Cc1ccc(F)cc1	> 25%
CCn1c(CSc2ccc(NC(C)=O)cc2)nc2cc(C(=O)O)ccc21	inactive
Cc1ccsc1C(=O)NCCc1ccc(C(=O)O)cc1	inactive

Molecular target: T2, Delta-aminolevulinic acid dehydratase (Homo sapiens, UniProt P13716)
T2 sequence (P13716 whole entry): T1 sequence (whole entry)
Test: as §1
Settings: not given

SMILES	IC50
O=C(O)c1c2c(nc3ccccc13)CCN(C(=O)c1cccc(C(F)(F)F)c1)C2	Not Active

Same assay, conditions: read-out: IC50

SMILES	IC50
O=C(O)c1ccc2c(c1)n(CCN1CCCC1)c(=O)n2Cc1ccc(F)cc1	> 1000 µM
O=C(O)c1ccc2c(c1)nc(CCNC(=O)c1cccs1)n2Cc1cccc(C(F)(F)F)c1	740 µM
O=C(O)c1cc(-c2ccc(Cl)cc2)cs1	85.3 µM
O=C(O)c1cc(-c2ccc(Br)cc2)cs1	99.7 µM
O=C(O)c1ccc2c(c1)n(Cc1ncccn1)c(=O)n2Cc1ccc(F)cc1	119 µM

Tested on: not listed separately
Test: (§2) Inhibition of recombinant Wolbachia endobacteria ALADH using 5-ALA as substrate after 20 mins
Settings: not given

SMILES	IC50
O=C(O)c1c2c(nc3ccccc13)CCNC2	Not Active
CN1CCc2nc3ccccc3c(C(=O)O)c2C1	Not Active
O=C(O)c1c2c(nc3ccccc13)CCN(S(=O)(=O)c1ccccc1)C2	Not Active
CC(C)(C)C(=O)N1CCc2nc3ccccc3c(C(=O)O)c2C1	Not Active
O=C(O)c1c2c(nc3ccccc13)CCN(CC(O)COc1ccccc1)C2 (stereo not given)	Not Active
O=C(c1cccc(C(F)(F)F)c1)N1CCc2nc3ncccc3cc2C1	Not Active
O=C(O)c1c2c(nc3ccccc13)CCN(CC(O)c1ccccc1)C2 (stereo not given)	Not Active
O=C(O)c1c2c(nc3ccccc13)CCN(Cc1ccccc1)C2	Not Active
COc1ccc(S(=O)(=O)N2CCc3nc4ccccc4c(C(=O)O)c3C2)cc1	Not Active

Same assay, conditions: read-out: IC50

SMILES	IC50
O=C(O)c1c2c(nc3ccccc13)CCN(C(=O)c1cccc(C(F)(F)F)c1)C2	8.1 µM
O=C(O)c1ccc2c(c1)n(CCN1CCCC1)c(=O)n2Cc1ccc(F)cc1	340 µM
O=C(O)c1ccc2c(c1)nc(CCNC(=O)c1cccs1)n2Cc1cccc(C(F)(F)F)c1	11.1 µM
O=C(O)c1cc(-c2ccc(Cl)cc2)cs1	521 µM
O=C(O)c1cc(-c2ccc(Br)cc2)cs1	299 µM
O=C(O)c1ccc2c(c1)n(Cc1ncccn1)c(=O)n2Cc1ccc(F)cc1	> 1000 µM

Tested on: Wolbachia
Test: as §2
Settings: not given

SMILES	inhibition
O=C(O)c1ccc2c(c1)n(CC1CCNC1)c(=O)n2Cc1ccc(F)cc1 (stereo not given)	inactive
O=C(N[C@@H](Cc1ccccc1)C(=O)O)c1cccs1	inactive
Cn1c(CCNC(=O)c2cccs2)nc2cc([N+](=O)[O-])ccc21	inactive
CCn1c(CSc2nnc(-c3cccs3)n2Cc2ccccc2)nc2cc(C(=O)O)ccc21	inactive
CC(NC(=O)Cc1ccccc1C(=O)O)C1Nc2ccccc2N1 (stereo not given)	inactive
O=C(O)CCNC(=O)C(Cc1ccccc1)NC(=O)c1cccs1 (stereo not given)	inactive
CCn1c(CSc2ccc(NC(C)=O)cc2)nc2cc(C(=O)O)ccc21	inactive
Cc1ccsc1C(=O)NCCc1ccc(C(=O)O)cc1	inactive

Source: ChEMBL document CHEMBL2429725, “New chemotypes for wALADin1-like inhibitors of delta-aminolevulinic acid dehydratase from Wolbachia endobacteria” (Bioorg Med Chem Lett, 2013)
